Data reported in ChEMBL document CHEMBL4602685, “Yanhusanines A-F, Isoquinoline-Derived Alkaloid Enantiomers from Corydalis yanhusuo and Their Biological Activity” (J Nat Prod, 2020).
Active and inactive are the calls of the source. The rule behind the calls is not given here.

Key:
[1] = test system: Staphylococcus epidermidis; experiment: Antimicrobial activity against Staphylococcus epidermidis ATCC 12228 assessed as reduction in microbial growth after 24 hrs by CLSI based broth microdilution method; assay type: functional, organism-based
Homo sapiens = organism: Homo sapiens; experiment: Selectivity ratio of IC50 for inhibition of human CE1 […]
Bel-7402 = experiment: Cytotoxicity against human Bel7402 cells assessed as reduction in cell viability after 24 hrs by MTT assay; assay type: functional, cell-based
Staphylococcus aureus = experiment: Antimicrobial activity against Staphylococcus aureus ATCC 25923 assessed as reduction in microbial growth after 24 hrs by CLSI based broth microdilution method; assay type: functional, organism-based
HepG2 = experiment: Cytoprotection activity in human HepG2 cells assessed as reduction in acetaminophen-induced cell injury after 48 hrs by MTT assay; assay type: functional, cell-based
[2] = target: T1, Tyrosine-protein phosphatase non-receptor type 1 (Homo sapiens) (UniProt P18031); experiment: Inhibition of recombinant human GST-tagged PTP1B using para-nitrophenyl phosphate as substrate incubated for 10 mins by spectrophotometric method
T1 sequence (whole entry): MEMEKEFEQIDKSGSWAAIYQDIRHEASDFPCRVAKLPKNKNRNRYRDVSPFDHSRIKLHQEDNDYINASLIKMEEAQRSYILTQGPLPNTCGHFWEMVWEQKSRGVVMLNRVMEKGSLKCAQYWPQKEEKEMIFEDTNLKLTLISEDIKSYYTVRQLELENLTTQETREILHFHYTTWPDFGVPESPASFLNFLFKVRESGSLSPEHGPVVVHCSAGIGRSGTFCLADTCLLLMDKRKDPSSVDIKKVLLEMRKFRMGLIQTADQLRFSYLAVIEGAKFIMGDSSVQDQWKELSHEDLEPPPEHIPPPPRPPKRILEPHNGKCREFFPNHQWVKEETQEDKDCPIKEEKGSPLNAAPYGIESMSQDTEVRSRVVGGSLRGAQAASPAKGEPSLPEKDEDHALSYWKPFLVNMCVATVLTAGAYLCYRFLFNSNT

Peritoneal macrophage = experiment: Antiinflammatory activity in C57BL/6J mouse Peritoneal macrophages assessed as reduction in LPS-induced TNFalpha secretion after 24 hrs; assay type: functional, cell-based
BGC-823 = experiment: Cytotoxicity against human BGC823 cells assessed as reduction in cell viability after 24 hrs by MTT assay; assay type: functional, cell-based
Escherichia coli = experiment: Antimicrobial activity against Escherichia coli ATCC 25922 assessed as reduction in microbial growth after 24 hrs by CLSI based broth microdilution method; assay type: functional, organism-based
Cocaine esterase = target: T2, Cocaine esterase (Homo sapiens, UniProt O00748); experiment: Inhibition of human CE2 using fluorescein diacetate as substrate preincubated for 10 mins followed by substrate addition and measured after 10 mins by luminescence assay
T2 sequence (O00748 whole entry): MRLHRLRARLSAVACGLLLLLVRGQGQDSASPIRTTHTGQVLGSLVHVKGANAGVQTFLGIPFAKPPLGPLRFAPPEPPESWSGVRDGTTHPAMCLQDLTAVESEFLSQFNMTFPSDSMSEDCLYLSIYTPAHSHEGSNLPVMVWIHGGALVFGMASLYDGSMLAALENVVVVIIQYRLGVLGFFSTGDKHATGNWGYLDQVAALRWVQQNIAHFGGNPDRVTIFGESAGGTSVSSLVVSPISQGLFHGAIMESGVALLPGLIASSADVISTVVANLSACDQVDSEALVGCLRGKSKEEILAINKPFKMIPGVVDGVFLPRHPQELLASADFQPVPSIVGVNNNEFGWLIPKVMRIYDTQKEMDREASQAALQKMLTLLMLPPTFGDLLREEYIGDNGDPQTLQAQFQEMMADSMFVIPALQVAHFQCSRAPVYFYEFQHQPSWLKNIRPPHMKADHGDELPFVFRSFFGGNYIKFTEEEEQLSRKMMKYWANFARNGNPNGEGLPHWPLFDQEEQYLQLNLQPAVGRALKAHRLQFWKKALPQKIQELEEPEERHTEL

[3] = test system: Mycolicibacterium smegmatis; experiment: Antimicrobial activity against Mycobacterium smegmatis MC2155 […] assessed as reduction in microbial growth after 24 hrs by CLSI based broth microdilution method; assay type: functional, organism-based
Liver carboxylesterase 1 = target: T3, Liver carboxylesterase 1 (Homo sapiens, UniProt P23141); experiment: Inhibition of human CE1 using D-luciferin methyl ester as substrate preincubated for 10 mins followed by substrate addition and measured after 10 mins by luminescence assay
T3 sequence (P23141 whole entry): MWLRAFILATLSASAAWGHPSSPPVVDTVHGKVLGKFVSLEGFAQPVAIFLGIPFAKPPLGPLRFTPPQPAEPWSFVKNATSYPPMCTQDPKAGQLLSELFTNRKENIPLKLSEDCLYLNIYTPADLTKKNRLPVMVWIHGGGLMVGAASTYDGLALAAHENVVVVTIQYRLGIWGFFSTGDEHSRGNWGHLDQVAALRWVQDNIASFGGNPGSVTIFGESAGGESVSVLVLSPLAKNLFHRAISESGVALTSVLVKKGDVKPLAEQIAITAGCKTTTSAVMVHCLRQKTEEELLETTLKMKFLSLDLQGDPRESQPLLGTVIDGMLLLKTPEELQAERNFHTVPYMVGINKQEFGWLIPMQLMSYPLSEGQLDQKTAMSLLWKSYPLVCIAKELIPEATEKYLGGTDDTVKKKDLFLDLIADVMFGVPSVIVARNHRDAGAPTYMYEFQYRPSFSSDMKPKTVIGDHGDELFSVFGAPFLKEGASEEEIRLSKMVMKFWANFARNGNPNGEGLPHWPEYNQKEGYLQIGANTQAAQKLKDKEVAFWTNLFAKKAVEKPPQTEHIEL

A549 = experiment: Cytotoxicity against human A549 cells assessed as reduction in cell viability after 24 hrs by MTT assay; assay type: functional, cell-based
HCT-8 = experiment: Cytotoxicity against human HCT8 cells assessed as reduction in cell viability after 24 hrs by MTT assay; assay type: functional, cell-based
A2780 = experiment: Cytotoxicity against human A2780 cells assessed as reduction in cell viability after 24 hrs by MTT assay; assay type: functional, cell-based

Compound | Activity [1] | Ratio IC50 (Homo sapiens) | Activity (Bel-7402) | Activity (Staphylococcus aureus) | Activity (HepG2) | inhibition [2] | Activity (Peritoneal macrophage) | Activity (BGC-823) | Activity (Escherichia coli) | IC50 (Cocaine esterase) | Activity [3] | IC50 (Liver carboxylesterase 1) | Activity (A549) | Activity (HCT-8) | Activity (A2780)
COc1cc2c(cc1OC)C([C@H](C)c1ccc(OC)c(OC)c1O)=NCC2 | inactive | 14.1 | inactive | inactive | inactive | inactive | inactive | inactive | inactive | 7.1 µM | inactive | > 100 µM | inactive | inactive | inactive
O=[N+]([O-])c1ccc(OP(=O)(O)Oc2ccc([N+](=O)[O-])cc2)cc1 |  |  |  |  |  |  |  |  |  |  |  | 0.2 µM |  |  | 
COc1cc2ccnc([C@H](C)c3ccc(OC)c(OC)c3O)c2cc1OC | inactive |  | inactive | inactive | inactive | inactive | inactive | inactive | inactive | > 100 µM | inactive |  | inactive | inactive | inactive
COc1cc2ccnc([C@@H](C)c3ccc(OC)c(OC)c3O)c2cc1OC | inactive |  | inactive | inactive | inactive | inactive | inactive | inactive | inactive | > 100 µM | inactive |  | inactive | inactive | inactive
COc1cc2cc[n+]3c(c2cc1OC)[C@@](C)(O)c1ccc(OC)c(OC)c1C3 | inactive | 21.8 | inactive | inactive | inactive | inactive | inactive | inactive | inactive | 4.6 µM | inactive | > 100 µM | inactive | inactive | inactive
COc1cc2ccnc([C@]3(C)OC(=O)c4c3ccc(OC)c4OC)c2cc1OC | inactive | 28.9 | inactive | inactive | inactive | inactive | inactive | inactive | inactive | 3.5 µM | inactive | > 100 µM | inactive | inactive | inactive
COc1cc2c(cc1OC)[C@]1(Oc3c(ccc(OC)c3OC)[C@@]1(C)O)N(C=O)CC2 | inactive |  | inactive | inactive | inactive | inactive | inactive | inactive | inactive |  | inactive | > 100 µM | inactive | inactive | inactive
COc1cc2c(cc1OC)[C@@]1(Oc3c(ccc(OC)c3OC)[C@]1(C)O)N(C=O)CC2 | inactive |  | inactive | inactive | inactive | inactive | inactive | inactive | inactive |  | inactive | > 100 µM | inactive | inactive | inactive
COc1cc2ccnc([C@@]3(C)OC(=O)c4c3ccc(OC)c4OC)c2cc1OC | inactive | 49.3 | inactive | inactive | inactive | inactive | inactive | inactive | inactive | 2 µM | inactive | > 100 µM | inactive | inactive | inactive
COc1cc2c(cc1OC)C([C@@H](C)c1ccc(OC)c(OC)c1O)=NCC2 | inactive | 11.6 | inactive | inactive | inactive | inactive | inactive | inactive | inactive | 8.7 µM | inactive | > 100 µM | inactive | inactive | inactive
COc1cc2c(cc1OC)C([C@](C)(OC)c1ccc(OC)c(OC)c1O)=NCC2 | inactive | 20 | inactive | inactive | inactive | inactive | inactive | inactive | inactive | 5 µM | inactive | > 100 µM | inactive | inactive | inactive
COc1cc2c(cc1OC)C([C@@](C)(OC)c1ccc(OC)c(OC)c1O)=NCC2 | inactive | 10.8 | inactive | inactive | inactive | inactive | inactive | inactive | inactive | 9.3 µM | inactive | > 100 µM | inactive | inactive | inactive
COc1cc2cc[n+]3c(c2cc1OC)[C@](C)(O)c1ccc(OC)c(OC)c1C3 | inactive | 7.6 | inactive | inactive | inactive | inactive | inactive | inactive | inactive | 13.2 µM | inactive | > 100 µM | inactive | inactive | inactive
